In US20190369111A1, “MOLECULAR KINETICS EVALUATION METHOD AND SCREENING METHOD” (Tokyo University of Science Foundation, priority 2016, published 2019):

Biological target: endogenous wild-type p53 protein (Homo sapiens, UniProt P04637)
Assay: Degradation of endogenous wild-type p53 protein in HeLa cells, Western blot analysis
Format: cell-based
Parameters: endogenous in cells
Method: HeLa cells were seeded in a 24-well plate at a cell density of 4×10^4 cells/well, and then cultured under conditions of 37° C. and 5 vol % CO2 for 16 hours.
After 16 hours from cell seeding, TIBC-CANDDY_MLN was added to HeLa cells as follows. […]
After electrophoresis, proteins were transferred to a PVDF membrane (Immobion™-P, Millipore) under conditions of 100 V and 2 hours using a tank-type blotting device and a transfer buffer (25 mM Tris-HCl, 195 mM glycine, 0.01% SDS, 15% methanol). […] Subsequently, the membrane was treated with a chemiluminescence reagent Immobilon™ Western (Millipore), and then chemiluminescence was detected using a lumino image analyzer LAS-3000 (FUJIFILM Corporation).

endogenous wild-type p53 protein, sequence (P04637 whole entry): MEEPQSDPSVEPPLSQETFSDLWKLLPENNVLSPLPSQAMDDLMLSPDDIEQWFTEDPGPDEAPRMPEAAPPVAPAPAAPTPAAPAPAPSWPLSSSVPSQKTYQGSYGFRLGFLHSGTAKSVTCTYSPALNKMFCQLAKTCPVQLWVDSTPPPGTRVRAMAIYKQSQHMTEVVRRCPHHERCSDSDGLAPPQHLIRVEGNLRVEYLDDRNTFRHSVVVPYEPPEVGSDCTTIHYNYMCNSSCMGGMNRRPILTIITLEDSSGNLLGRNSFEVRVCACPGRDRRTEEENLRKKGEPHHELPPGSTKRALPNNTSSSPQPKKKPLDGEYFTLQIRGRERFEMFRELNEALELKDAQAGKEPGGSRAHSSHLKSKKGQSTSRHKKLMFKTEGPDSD

CC(C)C[C@H](NC(=O)CNC(=O)c1cc(Cl)ccc1Cl)C(=O)NCCCCCCC(=O)Nc1ccc(C(=O)/C=C/c2ccc(I)cc2)cc1 [TIBC-CANDDY_MLN]
amount of endogenous wild-type p53 protein (24 hours after addition): the amount of the endogenous wild-type p53 protein was reduced | amount of wild-type p53 protein when MLN2238 is added together (both TIBC-CANDDY_MLN and MLN2238 added): the amount of the wild-type p53 protein was increased as compared with the control (DMSO)
